Assays:
[1] = target: T1, Full-length inactive AKT1 (Homo sapiens (Human), UniProt P31749); assay: Thermal Shift Assay (protein-ligand binding); conditions: Kd at 25° C. calculated using constant ligand binding enthalpy −15 kcal/mol; 15 μM compound, ANS dye
Protocol: Binding analysis. Protein-ligand binding was identified with the thermal shift assay which is based on the ligand-induced stabilization of the protein tertiary structure. The thermal stability of the ligand-Akt1 complex was assessed by subjecting the complex to a set temperature gradient and by comparison of the meltion temperature of the Akt1-ligand complex with the melting temperature of the protein alone. Protein unfolding was monitored by the fluorescence readout of an environmentally sensitive fluorescent dye, 1-anilinonaphthalene-8-sulfonic acid (ANS). […] The PCR plate was placed into a RT-PCR instrument and a temperature gradient was performed, increasing from 27 to 80° C., at 1° C./30 sec heat rate with a dwell time of 20 sec. The change in ANS fluorescence was measured using the filter set of 475 nm/525 nm excitation/emission.

[2] = target: T1, Full-length inactive AKT1; assay: Inactive Akt Alpha Screen Assay; conditions: 8 nM inactive Akt1 activated by PDK1 and MAPKAPK2, lipid vesicles, 50 μM ATP, biotinylated crosstide; read-out: Akt1 biochemical assay IC50 AlphaScreen crosstide
Protocol: AKT1 activity was assayed using the GSK3-derived biotinylated peptide substrate, crosstide (biotin-[…]), and AlphaScreen™ (Amplified Luminescent Proximity Homogeneous Assay) technology. AKT1 activation was achieved by the addition of the activating kinases PDK1 and MAPKAPK2, lipid vesicles, and ATP. The extent of peptide phosphorylation was determined using a phospho-AKT substrate antibody and acceptor beads conjugated to Protein A and donor beads conjugated to streptavidin that bind to the biotin on the peptide. Excitation of the donor beads converted ambient oxygen to excited singlet oxygen which, when in close proximity to acceptor beads, reacted with acceptor beads resulting in signal amplification.
After a 20 minute pre-incubation at room temperature, the kinase reaction was initiated by the addition of 5 μL of an activation mixture diluted in assay buffer containing biotinylated crosstide, PDK1, MAPKAPK2, DOPS/DOPC, PtdIns(3,4,5)P3, and ATP for final concentrations of 60 nM biotinylated crosstide, 0.1 nM PDK1, 0.7 nM MK2, 5.5 μM DOPS, 5.5 μM DOPC, 0.5 μM PtdIns(3,4,5)P3, and 50 μM ATP. The plates were incubated for 30 minutes at room temperature, and then stopped in the dark by the addition of 10 μL stop/detection mixture prepared in assay buffer containing EDTA, AlphaScreen™ Streptavidin Donor and Protein A Acceptor beads, and phospho-AKT substrate antibody for final concentrations of 10 mM EDTA, 500 ng/well of both AlphaScreen™ Streptavidin Donor beads and Protein A Acceptor beads, and phospho-AKT substrate antibody at a final dilution of 1:350. Assay plates were incubated for 90 minutes at room temperature in the dark, and the plates were read on a Perkin Elmer Envision Multilabel plate reader (excitation wavelength: 640 nm, emission wavelength: 570 nm). […]

Phospho-Akt (S473) = assay: Cell ELISA Assay, Phospho-Akt detection; assay type: cell-based; conditions: cells treated for 1 hour, cell line not stated
Protocol: Phospho-Akt detection analysis. Phospho-Akt (S473) was detected using cell ELISA. Briefly, cells were plated in a 96-well plate at 7,000-10,000 cells per well, cultured for 2-3 days in complete growth medium, and then treated with various drugs or combinations of drugs for 1 hour. The cells were fixed with ice-cold methanol, and washed with TBS supplemented with 1% H2O2. Phospho-Akt (S473) was probed with corresponding rabbit antibody as a primary antibody, and horseradish peroxidase conjugated goat anti-rabbit IgG. After treatment with SuperSignal® ELISA for 15 minutes, the detection was performed using a luminometer. Data were normalized to untreated controls and analyzed with Microsoft Excel.

cells = assay: Cell proliferation / viability GI50 (MTS assay or ATP quantitation assay); assay type: cell-based; conditions: 72 hours treatment; cell line and assay (MTS or ATP quantitation) not stated
Protocol: Cell proliferation analysis. Cell survival was determined by the MTS assay. Briefly, cells were plated in a 96-well plate at 2,000-10,000 cells per well, cultured for 24 hours in complete growth medium, and then treated with various drugs and drug combinations for 72 hours. MTS was added and incubated for 4 hour, followed by assessment of cell viability using the microplate reader at 570 nm. Data were normalized to untreated controls and analyzed with Microsoft Excel.
Cell viability analysis. Cell viability was determined by the ATP quantitation assay. Briefly, cells were plated in a 96-well plate at 2,000-10,000 cells per well, cultured for 24 hours in complete growth medium, and then treated with various drugs or combination of drugs for 72 hours. CellTiter-Glo® reagent was added and incubated at room temperature for 10 minutes, followed by assessment of cell viability using a luminometer. Data were normalized to untreated controls and analyzed with Microsoft Excel.

T1 sequence (P31749 whole entry): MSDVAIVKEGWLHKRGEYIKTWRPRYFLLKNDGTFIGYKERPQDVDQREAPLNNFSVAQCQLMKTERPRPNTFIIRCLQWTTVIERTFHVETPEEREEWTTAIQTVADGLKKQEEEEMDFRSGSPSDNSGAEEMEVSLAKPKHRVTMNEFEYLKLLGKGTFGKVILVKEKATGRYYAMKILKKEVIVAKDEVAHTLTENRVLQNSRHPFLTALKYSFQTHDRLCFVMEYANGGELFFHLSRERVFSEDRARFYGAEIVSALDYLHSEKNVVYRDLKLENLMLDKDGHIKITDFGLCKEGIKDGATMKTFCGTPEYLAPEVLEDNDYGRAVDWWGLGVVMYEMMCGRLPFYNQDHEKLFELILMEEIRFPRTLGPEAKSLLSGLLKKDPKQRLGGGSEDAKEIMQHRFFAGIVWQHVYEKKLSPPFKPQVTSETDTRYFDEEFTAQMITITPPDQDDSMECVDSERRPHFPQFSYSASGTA

- Kd [1]: 1.1 nM
- IC50 [2]: 1.84 nM
- IC50 (Phospho-Akt (S473)): 11 nM
Compound: Nc1ncccc1-c1nc2ccc(-c3cccc(N4CCN(C(=O)C5CC5)CC4)c3)nc2n1-c1ccc(C2(N)CCC2)cc1 [Cmpd 14, (4-(3-(3-(4-(1-aminocyclobutyl)phenyl)-2-(2-aminopyridin-3-yl)-3H-imidazo[4,5-b]pyridin-5-yl)phenyl)piperazin-1-yl)(cyclopropyl)methanone]
- GI50 (cells): 296000 nM

Reference: patent US8609688B2, “Substituted imidazopyridinyl-aminopyridine compounds” (ArQule, Inc., priority 2011, dated 2013)
